# Measured values published in patent US20100226857A1, “TUMOR CELL DIFFERENTIATION AGENTS AS CHEMICAL INHIBITORS AND TREATMENTS FOR INTRACELLULAR PARASITES” (priority 2006, published 2010).
# Columns and labels:
# T. gondii tachyzoites [1] = assay: T. gondii tachyzoite proliferation assay in HS68 cells (tachyzoite count); type: cell-based, Toxoplasma gondii
# Protocol: Parasite propagation—The RH strain of Toxoplasma gondii was grown in BM bovine macrophage cells or HS68 human foreskin fibroblast cells obtained from the American Type Culture Collection (Rockville, Md.). HS68 cells were grown in RPMI 1640 medium (Mediatech, Inc., Herndon, Va.) plus 10% fetal bovine serum (Atlanta Biologicals, Lawrenceville, Ga.), 1 mM sodium pyruvate and 100 U/ml each of penicillin and streptomycin. Parasites were harvested from infected cultures of HS68 cells growing in T-75 cm^2 flasks. After removing the culture medium, the cells were scraped into 5 ml of phosphate-buffered saline and a cell lysate obtained by passing through a 26-gauge needle. To purify the parasites, the cell lysate was filtered through a 3 micron (micrometer) filter.
# (§1) Proliferation assays: HS68 cells were replica plated in 48-well dishes, and grown to confluence prior to infection with 5-10×10^4 freshly purified T. gondii tachyzoites/well. After 2 hours, the media and non-infective tachyzoites were removed, and replaced with RPMI medium containing 2% fetal bovine serum plus 1 mM sodium pyruvate, penicillin (100 U), streptomycin (100 U) and test agent or a vehicle control. The proliferation assays were terminated 48-72 hours post-infection when the untreated cells were heavily infected. All of the culture media were removed from the wells, and the tachyzoites in the media were fixed by dilution (1:1) into phosphate-buffered saline containing 10% formaldehyde. The tachyzoites were collected by brief centrifugation (30 seconds, […]) at room temperature using a tabletop microfuge. The tachyzoites were resuspended in 100 ul of phosphate-buffered saline, and duplicate aliquots were counted using a hemocytometer. […] The monolayer of HS68 cells in each well was fixed and stained for 5 minutes using a solution of 50% ethanol-5% formaldehyde-0.1% crystal violet in 0.85% sodium chloride, then rinsed with water, and air-dried. The minimum inhibitory concentration (MIC) of compounds that suppressed Toxoplasma-induced lysis of the HS68 cells was determined visually by counting the number of plaques/well in the monolayer.
# T. gondii = assay: Plaque suppression / protection of HS68 monolayer from T. gondii; type: cell-based, Toxoplasma gondii; details: for MIC IC50 (ratio MIC/IC50): MIC plaque suppression relative to IC50 tachyzoite count; for MIC: Toxoplasma gondii, read-out: MIC (uM) Plaque Suppression
# Protocol: as §1
# T. gondii tachyzoites [2] = assay: In vivo acute toxoplasmosis in mice (survival); parameters: species or system Toxoplasma gondii; CD-1 mice; details: for control of acute toxoplasmosis in mice: TSA 0.5 mg/kg, SAHA 50 mg/kg, scriptaid 3.5 mg/kg i.p. once daily, valproic acid 300 mg/kg oral daily; for median survival: mice
# Protocol: Specifically, female CD-1 mice (20 g) were inoculated in the sub-scapular region with 5,000 T. gondii tachyzoites on Day 0. […] The dose of scriptaid was not optimized in this experiment. In this study, valproic acid was administered orally in the drinking water at a dose of 300 mg/kg. Survival was monitored twice daily beginning on day 9 of the study. The results are depicted graphically in FIG. 5A and in tabular form in FIG. 5B.
# human tumor cell lines = details: cited from earlier work
# [3] = tested on: HS68 human foreskin fibroblast cells; assay: Toxicity to HS68 host cells; type: cell-based
# MCF-7 cells [4] = assay: Comet assay for DNA damage; type: cell-based, human
# Protocol: Comet Analysis: The comet assay is a single-cell gel electrophoresis method for measuring DNA damage. MCF-7 cells (2×10^5/35-mm^2 dish) were treated 12 h after plating. Twenty-four hours later, the cells were harvested and resuspended (1.5×10^5 cells/ml) in ice-cold PBS. The PBS cell suspension (50 ul) was mixed with 500 ul of 42° C. low-melting point agarose, spread evenly (75 ul) onto a Comet Slide (Trevigen, Gaithersburg, Md.), and allowed to harden. The slides were then immersed in ice-cold lysis solution (Trevigen) for 45 mm to lyse the cells and then transferred to freshly prepared alkali solution (300 mM NaOH and 1 mM EDTA, […]) for 45 mM. at room temperature to denature the DNA. Electrophoresis was performed at 4° C. Slides were air-dried overnight at room temperature and then stained with SYBR Green (Trevigen). Comets were visualized by fluorescence microscopy at 630× magnification with the aid of an antifade solution. Comet images were analyzed using the LAI Automated Comet Assay Analysis System (Loats Associates, Inc., Westminster, Md.). DNA damage was quantified in 80 comets per treatment/experiment using the tail moment [Tail moment [(% DNA) (distance traveled)]].
# [5] = tested on: MCF-7 human breast cancer cells; assay: ESR free radical (ROS) measurement in MCF-7 cell suspensions with DMPO; type: cell-based; details: for ESR signal indicative of ROS production in MCF-7 cells: 10 uM NSC3852, 8 uM NSC2039; for relative peak heights of the ESR signals (mean±range, n=2): 1×10^6 MCF-7 cells, 5 min at 37° C.
# Protocol: Free Radical Measurements: All ESR measurements were conducted using a Bruker EMIR spectrometer (Bruker Instruments Inc., Billerica, Mass.) and a flat-cell assembly. Hyperfine couplings were measured (to 0.1 G) directly from magnetic field separation using potassium tetraperoxochromate (K3CrO8) and 1,1-diphenyl-2-picrylhydrazyl as reference standards. The relative radical concentration was estimated by multiplying half of the peak height by (ΔHpp)^2, where (ΔHpp) represents peak-to-peak width. The Acquisit program was used for data acquisitions and analyses. MCF-7 cells (2.0×10^6 cells/60-mm^2 dish) were harvested 48 h after plating by trypsinization and collected at room temperature by centnfugation (225 g, 5 min). Cells were washed once with ice-cold PBS and resuspended in ice-cold PBS at 2×10^6 cells/ml. Radical production was measured in the presence of the spin trap 5,5-dimethyl-1-pyrroline-N-oxide (DMPO; Aldrich Chemical Co., Milwaukee, Wis.). DMPO (200 mM) and 1×10^6 cells test agents were mixed in 1.0 ml of PBS, incubated at 37° C. for 5 mm, and then transferred to a flat cell for ESR measurements.
# MCF-7 cells [6] = assay: Cell death ELISA (apoptosis); type: cell-based, human
# Protocol: Cell Death Enzyme-Linked Immunosorbent Assay: We quantified cytoplasmic nucleosomes using the Cell Death Detection […] kit (Roche Molecular Biochemicals, Indianapolis, Ind.) in MCF-7 cells plated in triplicate into 96-well plates. The cytoplasmic fractions from attached cells in each well were assayed in duplicate for the presence of nucleosomes according to the directions from the suppliers. The apoptotic response was measured by the nucleosome-enrichment fraction calculated as the ratio of the absorbance (405 nm) of drug-treated cultures/solvent-exposed cultures.
# T. gondii tachyzoites [7] = assay: NSC3852 inhibition of T. gondii tachyzoite proliferation in HS68 cells (Example 4); type: cell-based; details: Toxoplasma gondii, approximately 60 hours, n=5 experiments, read-out: median IC50 for inhibition of T. gondii tachyzoite proliferation
# Protocol: Briefly, T. gondii tachyzoites (1×10^5) were introduced into individual wells in a 48-well culture dish containing confluent monolayers of host cells (normal human skin fibroblasts HS68). Approximately 60 hours later, the tachyzoites were harvested from the medium and counted. […] Data points wee the average of triplicate determinations at every concentration of NSC3852 used.
# MCF-7 cells [8] = assay: Colorimetric determination of reduced and oxidized glutathione; type: cell-based, human; details: after 1 h, P<0.05
# Protocol: Colorimetric Determination of Reduced and Oxidized Glutathione: The GSH and GSSG concentrations in MCF-7 cells (3×10^6 cell/60 mm^2 dish) were measured enzymatically using the GSHI GSSG-412 kit (Oxis Research, Portland, Oreg.). GSSG and GSH standards were prepared in 5% metaphosphoric acid. Cell samples were prepared in 5% metaphosphoric acid with or without 1-methyl-2-vinyl-pyridium trifluoromethane sulfonate, a GSH-specific scavenger. Ellman's reagent (5′,5-dithiobis-2-nitrobenzoic acid) reacts with GSH to form a product with an absorption maximum at 412 nm. GSSG was determined using glutathione reductase to reduce GSSG to GSH followed by reaction with Ellman's reagent.
# Cryptosporidium parvum = assay: Real-time PCR analysis of C. parvum oocyst production in infected HCT-8 cells; type: cell-based; details: 48 hours, apicidin 70 ng/ml, SAHA 2.5 ug/ml
# Protocol: Monolayer cultures of HCT-8 human colon cells growing in 24-well plastic tissue culture dishes were infected with C. parvum oocysts for 3 hours. […] The cells were harvested, and DNA was extracted. The DNA was analyzed for the production of C. parvum oocysts from the infected cells using real-time PCR and DNA primers that specifically amplify the C. parvum oocysts wall protein (COWP).
# [9] = Toxoplasma gondii, RH strain T. gondii in HS68 cells, 48-well plate, 48-72 hours post-infection, mean+/-SEM, read-out: IC50 (uM) Tachyzoite Count
# [10] = RH strain T. gondii in HS68 cells, 48-well plate, mean+/-SEM
smiles,measurement,setting,value
O=C(CCCCCN1C(=O)c2cccc3cccc(c23)C1=O)NO [Scriptaid],IC50,T. gondii tachyzoites [1]; [9],0.039 ± 0.011 µM
same,IC50,"T. gondii tachyzoites [1]; Toxoplasma gondii, RH strain in HS68 cells, average of independent experiments, read-out: IC50 T. gondii tachyzoites",0.037 µM
same,low concentrations stimulating tachyzoite numbers,"T. gondii tachyzoites [1]; biphasic response, FIG. 4",1 to 10 nM
same,times tachyzoites are more sensitive than human tumor cells,T. gondii tachyzoites [1]; tachyzoite IC50 vs literature tumor cell concentrations,80-1500 times
same,state of HS68 monolayer of T. gondii-infected treated cells,"T. gondii; 1 uM, 48 hours",completely intact
same,MIC IC50 (ratio MIC/IC50),T. gondii,5.8
same,MIC,T. gondii; [10],0.225 ± 0.025 µM
same,control of acute toxoplasmosis in mice,T. gondii tachyzoites [2],showed in vivo efficacy
same,daily dose that can extend the life of mice infected with RH T. gondii,T. gondii tachyzoites [2]; for 14 days,about 3.5 mg/kg
same,IC50 levels reducing tumor cell proliferation in vitro,human tumor cell lines,1 to 20 mg/L
same,IC50,human tumor cell lines; read-out: IC50 levels reducing tumor cell proliferation in vitro,3 to 60 µM
same,toxicity to HS68 cells at highest concentration tested,[3]; 10 uM,non-toxic
"CCCC(CCC)C(=O)[O-].[Na+] [Valproic acid, sodium valproate]",IC50,T. gondii tachyzoites [1]; [9],1600 ± 1120 µM
same,IC50,"T. gondii tachyzoites [1]; Toxoplasma gondii, RH strain in HS68 cells, read-out: IC50 range of carboxylate inhibitors",1000 to 5000 µM
same,MIC IC50 (ratio MIC/IC50),T. gondii,5.2
same,MIC,T. gondii; [10],8300 ± 1000 µM
same,control of acute toxoplasmosis in mice,T. gondii tachyzoites [2],ineffective
same,therapeutic effect against RH T. gondii in mice,"T. gondii tachyzoites [2]; doses up to 600 mg/kg/day, oral or intraperitoneal",not therapeutic
same,median survival,T. gondii tachyzoites [2]; i.p. 400 mg/kg and 600 mg/kg divided into 2 daily doses,10 days
same,median survival,T. gondii tachyzoites [2]; oral dose of 600 mg/kg,12 days
"Oc1cccc2cccnc12 [NSC2039, 8-quinolinol]",DNA damage (comet tail moment),MCF-7 cells [4],did not induce DNA damage
same,ESR signal indicative of ROS production in MCF-7 cells,[5],no signal was produced
"O=Nc1ccc(O)c2ncccc12 [NSC3852, 5-nitroso-8-quinolinol]",time of peak apoptosis,MCF-7 cells [6],48 h
same,DNA damage (comet tail moment),MCF-7 cells [4],maximal at 24 h
same,IC50,T. gondii tachyzoites [7],0.079 µM
same,decrease in [GSH]/[GSSG] compared with control cells,MCF-7 cells [8],20%
same,"relative peak heights of the ESR signals (mean±range, n=2)",[5]; 2 uM,70±4 mm
same,ESR signal indicative of ROS production in MCF-7 cells,[5],"indicative of the DMPO-OH adduct, was observed"
same,"relative peak heights of the ESR signals (mean±range, n=2)",[5]; 10 uM,109±3 mm
CCC(=O)CCCCC[C@@H]1NC(=O)[C@H]2CCCCN2C(=O)[C@H]([C@@H](C)CC)NC(=O)[C@H](Cc2cn(OC)c3ccccc23)NC1=O [Apicidin],number of oocysts/ml (mean ± S.D. n = 6),Cryptosporidium parvum,517.7 ± 417.1 oocysts/ml
same,% Reduction in oocysts numbers,Cryptosporidium parvum; vs 0.1% DMSO,92.2%
"CC(/C=C/C(=O)NO)=C\[C@@H](C)C(=O)c1ccc(N(C)C)cc1 [TSA, trichostatin A]",IC50,"T. gondii tachyzoites [1]; RH strain T. gondii in HS68 cells, 48-well plate, 48-72 hours post-infection, mean+/-SEM, read-out: IC50 (uM) Tachyzoite Count",0.041 ± 0.001 µM
same,concentration that eliminated tachyzoites and plaque formation,T. gondii tachyzoites [1]; T. gondii infected HS68 cells,200 nM
same,concentrations giving dramatic decrease in tachyzoite numbers,T. gondii tachyzoites [1]; p<0.05,> 100 nM
same,MIC IC50 (ratio MIC/IC50),T. gondii,4.3
same,MIC (uM) Plaque Suppression,T. gondii; [10],0.175 ± 0.025 µM
same,control of acute toxoplasmosis in mice,T. gondii tachyzoites [2],showed in vivo efficacy
same,concentration at which apoptotic HS68 cells were evident,[3],0.5 µM
same,"relative peak heights of the ESR signals (mean±range, n=2)",[5]; 200 nM,99±1 mm
